Data published in article PMC11224111, “Optimizing the pharmacokinetics of an ^211At-labeled RGD peptide with an albumin-binding moiety via the administration of an albumin-binding inhibitor” (European Journal of Nuclear Medicine and Molecular Imaging, 2024).

Test system: U-87 MG tumor-bearing mice
Test: Biodistribution in U-87 MG tumor-bearing mice with IPBA
Type: in vivo
Settings: IPBA 10 eq at 1 h postinjection
Method: To prepare tumor-bearing mice, 5 × 10^6 of U-87 MG cells were subcutaneously inoculated into the right shoulder of 4-week-old female BALB/c nude mice (13–15 g, Japan SLC, Inc.) as previously reported. At approximately 10-day postinoculation of U-87 MG cells, they were used for each experiment after tumor size reached 0.3–0.5 cm^3.
At 1-h postinjection of [^211At]1 (37 kBq) and [^125I]2 (37 kBq), IPBA (1.9 mg, 6.1 µmol) was administered at 10 molar equivalent of blood albumin. Mice were sacrificed at 65-, 70-min, 2-, 4-, 12-, and 24-h postinjection of [^211At]1 and [^125I]2. Tissues of interest were removed and weighed, and radioactivity counts of ^125I and ^211At were determined with an auto well gamma counter (ARC-7010; Hitachi Medical, Ltd., Tokyo, Japan) and corrected for background radiation. To determine the radioactivity excreted from the body for 24 h, mice were housed in metabolic cages (Metabolica, Sugiyama-Gen Co., Ltd., Tokyo, Japan).

Ga-DOTA-K([^125I]IPBA)-c(RGDfK) [[^125I]2]
Radioactivity, Blood (65 min after administration): 11.19 (0.16)^ ** % injected activity per gram
Radioactivity, Bone (65 min after administration): 4.94 (1.52) % injected activity per gram
Radioactivity, Brain (65 min after administration): 0.31 (0.02) % injected activity per gram
Radioactivity, Heart (65 min after administration): 4.77 (0.10) % injected activity per gram
Radioactivity, Kidney (65 min after administration): 17.52 (1.13)^ * % injected activity per gram
Radioactivity, L. intestine (65 min after administration): 3.10 (0.11) % injected activity per gram
Radioactivity, Liver (65 min after administration): 5.29 (0.52)^ * % injected activity per gram
Radioactivity, Lung (65 min after administration): 10.10 (0.52)^ ** % injected activity per gram
Radioactivity, Muscle (65 min after administration): 2.62 (0.24) % injected activity per gram
Radioactivity, Neck (65 min after administration): 0.05 (0.01)^ * % injected activity
Radioactivity, Pancreas (65 min after administration): 2.66 (0.10) % injected activity per gram
Radioactivity, S. intestine (65 min after administration): 4.93 (0.21)^ * % injected activity per gram
Radioactivity, Spleen (65 min after administration): 3.95 (0.26) % injected activity per gram
Radioactivity, Stomach (65 min after administration): 1.33 (0.31) % injected activity
Radioactivity, Tumor (65 min after administration): 11.58 (0.32)^ * % injected activity per gram
Radioactivity, Blood (70 min after administration): 7.91 (0.45)^ *** % injected activity per gram
Radioactivity, Bone (70 min after administration): 2.30 (0.36) % injected activity per gram
Radioactivity, Brain (70 min after administration): 0.24 (0.04) % injected activity per gram
Radioactivity, Heart (70 min after administration): 3.25 (0.25)^ ** % injected activity per gram
Radioactivity, Kidney (70 min after administration): 11.87 (1.35)^ *** % injected activity per gram
Radioactivity, L. intestine (70 min after administration): 2.29 (0.24) % injected activity per gram
Radioactivity, Liver (70 min after administration): 3.64 (0.49)^ * % injected activity per gram
Radioactivity, Lung (70 min after administration): 6.75 (0.74)^ ** % injected activity per gram
Radioactivity, Muscle (70 min after administration): 1.53 (0.18) % injected activity per gram
Radioactivity, Neck (70 min after administration): 0.06 (0.01) % injected activity
Radioactivity, Pancreas (70 min after administration): 1.82 (0.14)^ * % injected activity per gram
Radioactivity, S. intestine (70 min after administration): 3.77 (0.37)^ ** % injected activity per gram
Radioactivity, Spleen (70 min after administration): 2.83 (0.36) % injected activity per gram
Radioactivity, Stomach (70 min after administration): 0.78 (0.15) % injected activity
Radioactivity, Tumor (70 min after administration): 11.24 (1.19)^ ** % injected activity per gram
Radioactivity, Blood (2 h after administration): 5.69 (0.44)^ *** % injected activity per gram
Radioactivity, Bone (2 h after administration): 2.73 (0.47) % injected activity per gram
Radioactivity, Brain (2 h after administration): 0.24 (0.02) % injected activity per gram
Radioactivity, Heart (2 h after administration): 2.24 (0.23)^ ** % injected activity per gram
Radioactivity, Kidney (2 h after administration): 8.39 (0.51) % injected activity per gram
Radioactivity, L. intestine (2 h after administration): 2.48 (1.12) % injected activity per gram
Radioactivity, Liver (2 h after administration): 2.31 (0.17)^ * % injected activity per gram
Radioactivity, Lung (2 h after administration): 4.74 (0.12)^ * % injected activity per gram
Radioactivity, Muscle (2 h after administration): 1.73 (0.60)^ * % injected activity per gram
Radioactivity, Neck (2 h after administration): 0.08 (0.04) % injected activity
Radioactivity, Pancreas (2 h after administration): 1.68 (0.36) % injected activity per gram
Radioactivity, S. intestine (2 h after administration): 2.41 (0.71) % injected activity per gram
Radioactivity, Spleen (2 h after administration): 2.33 (0.14) % injected activity per gram
Radioactivity, Stomach (2 h after administration): 0.77 (0.08) % injected activity
Radioactivity, Tumor (2 h after administration): 14.36 (1.54)^ ** % injected activity per gram
Radioactivity, Blood (4 h after administration): 1.71 (0.12)^ ** % injected activity per gram
Radioactivity, Bone (4 h after administration): 1.46 (0.16) % injected activity per gram
Radioactivity, Brain (4 h after administration): 0.18 (0.01) % injected activity per gram
Radioactivity, Heart (4 h after administration): 1.22 (0.12) % injected activity per gram
Radioactivity, Kidney (4 h after administration): 5.00 (0.36)^ ** % injected activity per gram
Radioactivity, L. intestine (4 h after administration): 4.61 (1.33)^ ** % injected activity per gram
Radioactivity, Liver (4 h after administration): 1.32 (0.06) % injected activity per gram
Radioactivity, Lung (4 h after administration): 2.31 (0.06)^ *** % injected activity per gram
Radioactivity, Muscle (4 h after administration): 0.52 (0.05)^ * % injected activity per gram
Radioactivity, Neck (4 h after administration): 0.05 (0.04) % injected activity
Radioactivity, Pancreas (4 h after administration): 0.72 (0.15) % injected activity per gram
Radioactivity, S. intestine (4 h after administration): 3.09 (0.79) % injected activity per gram
Radioactivity, Spleen (4 h after administration): 1.83 (0.10)^ * % injected activity per gram
Radioactivity, Stomach (4 h after administration): 0.65 (0.09) % injected activity
Radioactivity, Tumor (4 h after administration): 12.42 (0.89) % injected activity per gram
Radioactivity, Blood (12 h after administration): 1.65 (0.20)^ *** % injected activity per gram
Radioactivity, Bone (12 h after administration): 0.72 (0.09)^ * % injected activity per gram
Radioactivity, Brain (12 h after administration): 0.07 (0.01)^ ** % injected activity per gram
Radioactivity, Heart (12 h after administration): 1.02 (0.07)^ ** % injected activity per gram
Radioactivity, Kidney (12 h after administration): 2.71 (0.17)^ *** % injected activity per gram
Radioactivity, L. intestine (12 h after administration): 0.75 (0.05)^ *** % injected activity per gram
Radioactivity, Liver (12 h after administration): 0.70 (0.08)^ *** % injected activity per gram
Radioactivity, Lung (12 h after administration): 2.07 (0.11)^ *** % injected activity per gram
Radioactivity, Muscle (12 h after administration): 0.37 (0.01)^ *** % injected activity per gram
Radioactivity, Neck (12 h after administration): 0.06 (0.02)^ * % injected activity
Radioactivity, Pancreas (12 h after administration): 0.50 (0.02)^ ** % injected activity per gram
Radioactivity, S. intestine (12 h after administration): 0.68 (0.10)^ *** % injected activity per gram
Radioactivity, Spleen (12 h after administration): 1.03 (0.05)^ ** % injected activity per gram
Radioactivity, Stomach (12 h after administration): 0.39 (0.02)^ ** % injected activity
Radioactivity, Tumor (12 h after administration): 7.08 (0.74)^ ** % injected activity per gram
Radioactivity, Blood (24 h after administration): 1.55 (0.17)^ * % injected activity per gram
Radioactivity, Bone (24 h after administration): 0.48 (0.04) % injected activity per gram
Radioactivity, Brain (24 h after administration): 0.05 (0.01) % injected activity per gram
Radioactivity, Heart (24 h after administration): 0.92 (0.58) % injected activity per gram
Radioactivity, Kidney (24 h after administration): 1.67 (0.24) % injected activity per gram
Radioactivity, L. intestine (24 h after administration): 0.38 (0.22) % injected activity per gram
Radioactivity, Liver (24 h after administration): 0.56 (0.10)^ * % injected activity per gram
Radioactivity, Lung (24 h after administration): 1.58 (0.42) % injected activity per gram
Radioactivity, Muscle (24 h after administration): 0.26 (0.02) % injected activity per gram
Radioactivity, Neck (24 h after administration): 0.03 (0.00) % injected activity
Radioactivity, Pancreas (24 h after administration): 0.27 (0.05) % injected activity per gram
Radioactivity, S. intestine (24 h after administration): 0.26 (0.11) % injected activity per gram
Radioactivity, Spleen (24 h after administration): 0.72 (0.16)^ * % injected activity per gram
Radioactivity, Stomach (24 h after administration): 0.20 (0.04)^ * % injected activity
Radioactivity, Tumor (24 h after administration): 5.51 (0.05)^ * % injected activity per gram
Radioactivity excreted, Feces (until 24 h postinjection): 8.40 (3.14) % injected activity
Radioactivity excreted, Urine (until 24 h postinjection): 56.09 (4.93)^ ** % injected activity
